From patent US9453044
Read-outs that look alike come from different tables or passages of the source.

Conditions: amide bond, salicylaldehyde ester ligation, TFA, 2 steps

CC(C)C[C@@H]1NC(=O)[C@H](Cc2ccccc2)NC(=O)[C@H](CO)NC(=O)[C@H](C)NC(=O)[C@H](Cc2ccccc2)NC1=O [SFLFA]
ring closure, yield after HPLC (from H-Ser-Phe-Leu-Phe-Ala-OPhCHO?, 15-membered ring): 35%

CC(C)C[C@@H]1NC(=O)[C@H](Cc2ccccc2)NC(=O)[C@H](C)NC(=O)[C@H](CCCCN)NC(=O)CNC(=O)[C@H](CO)NC1=O [SGKAFL]
ring closure, yield after HPLC (from H-Ser-Gly-Lys-Ala-Phe-Leu-OPhCHO?, 18-membered ring): 39%

CC(C)C[C@@H]1NC(=O)CNC(=O)[C@H](CO)NC(=O)CNC(=O)[C@H](C)NC(=O)[C@H](Cc2ccccc2)NC(=O)CNC(=O)[C@H](Cc2ccccc2)NC1=O [SGLFGFAG]
ring closure, yield after HPLC (from H-Ser-Gly-Leu-Phe-Gly-Phe-Ala-Gly-OPhCHO?, 24-membered ring): 65%

CC(C)C[C@@H]1NC(=O)CNC(=O)[C@H](CO)NC(=O)CNC(=O)[C@H](C)NC(=O)[C@H](Cc2ccccc2)NC(=O)CNC(=O)[C@H](Cc2ccc(O)cc2)NC1=O [SGLYGFAG]
ring closure, yield after HPLC (from H-Ser-Gly-Leu-Tyr-Gly-Phe-Ala-Gly-OPhCHO?, 24-membered ring): 52%

CC(C)C[C@@H]1NC(=O)[C@H](CO)NC(=O)[C@H](CC(C)C)NC(=O)[C@H](CO)NC1=O [SLSL]
ring closure, yield after HPLC (from H-Ser-Leu-Ser-Leu-OPhCHO?, 12-membered ring): 20%

C[C@@H](O)[C@@H]1NC(=O)CNC(=O)[C@H](Cc2ccccc2)NC(=O)[C@H](Cc2ccccc2)NC(=O)CNC(=O)[C@H](Cc2ccccc2)NC(=O)[C@H](Cc2ccccc2)NC1=O [TFFGFFG]
ring closure, yield after HPLC (from H-Thr-Phe-Phe-Gly-Phe-Phe-Gly-OPhCHO?, 21-membered ring): 56%

CC(C)C[C@@H]1NC(=O)CNC(=O)[C@H]([C@@H](C)O)NC(=O)CNC(=O)[C@H](C)NC(=O)[C@H](Cc2ccccc2)NC(=O)CNC(=O)[C@H](Cc2ccccc2)NC1=O [TGLFGFAG]
ring closure, yield after HPLC (from H-Thr-Gly-Leu-Phe-Gly-Phe-Ala-Gly-OPhCHO?, 24-membered ring): 63%
